Reference: patent publication US9675623B2, “Non-surgical method of treatment for cataract” (THE REGENTS OF THE UNIVERSITY OF MICHIGAN, priority 2012, dated 2017)
Numbering of substitutions follows the chain as printed. Several values for one entry are separate records, joined by “and”; a condition that tells them apart may be missing. Equal values may be shown once.

Key:
R120G cryAB [1] = biological target: T1, R120G cryAB (Homo sapiens, UniProt P02511, R120G); assay: Differential scanning fluorimetry (DSF), shift of apparent Tm; assay type: binding; conditions: DSF with R120G cryAB; for ACTIVITY (shift in thermal stability at 100 μM): 100 μM compound
T1 sequence (P02511 1-175 R120G): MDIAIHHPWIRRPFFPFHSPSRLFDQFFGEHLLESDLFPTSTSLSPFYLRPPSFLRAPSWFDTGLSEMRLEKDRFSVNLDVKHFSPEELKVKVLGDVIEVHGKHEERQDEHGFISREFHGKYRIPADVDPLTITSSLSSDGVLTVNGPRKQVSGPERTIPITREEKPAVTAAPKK
Procedure: Differential scanning fluorimetry (DSF) was utilized to identify compounds that stabilize cryAB. In DSF experiments, the melting transition (Tm) of the protein target is measured in the presence of potential ligands (Cummings et al., J Biomol Screen 11, 854 (2006). DSF measures thermal unfolding of the target protein via the fluorescence of intrinsic tryptophans, or (more commonly) a dye, such as 1,8-anilinonapthalenesulfonic (bis-ANS) or Sypro Orange. Binding of a ligand adds free energy to the folded state or key intermediates, which limits unfolding and shifts the apparent Tm. These values are used to calculate the unfolding transition. When compounds bind to the target prior to heating, they stabilize against unfolding, shifting the ΔTm. […] (3).

R120G cryAB [2] = biological target: T1, R120G cryAB; assay: Biolayer interferometry (Octet Red); assay type: binding; conditions: biotinylated cryAB on streptavidin-coated pins, equilibrium association data
Procedure: Measuring affinity for the test protein by biolayer interferometry (Octet Red) allows for the identification of false positives. Briefly, biotinylated cryAB is immobilized to streptavidin-coated pins and equilibrium association data across a hundred-fold concentration range is analyzed to generate the apparent KD. To control for nonspecific binding, the response of a biocytin-blocked pin is subtracted from each sensorgram.

R120G cryAB [3] = biological target: T1, R120G cryAB; assay: Amyloid formation / aggregation measured by electron microscopy and visual inspection; assay type: biochemical
Procedure: To test this idea, R120G cryAB (15 μM) was treated with 5-cholesten-3b,25-diol or cholesterol (100 μM) and its ability to aggregate was measured by electron microscopy.

R120G cryAB [4] = biological target: T1, R120G cryAB; assay: 15N HSQC NMR binding site mapping; conditions: 15N HSQC NMR chemical shifts
cryAB = biological target: T2, cryAB (Mus musculus, UniProt P23927, R120G); assay: Excised eyes from R120G cryAB knock-in mice treated with compound; conditions: 100 μM, versus saline control
T2 construct: from tissue; host or cells: excised eyes of R120G cryAB knock-in mice
T2 sequence (P23927 1-175 R120G): T1 sequence (P02511 1-175 R120G) with P39S, S41A, F61I, T170A
Procedure: The R120G cryAB knock-in mouse is a clinically-acceptable model of aging-associated and hereditary cataract. The animal model develops severe cataracts within 20 weeks (Andley et al., PLoS One 6, e17671 (2011)). Excised eyes from these mice were treated with 5-cholesten-3b,25-diol (100 μM) or a saline control.

[5] = test system: R120G cryAB knock-in mice; assay: Eye drops to live R120G cryAB knock-in mice; slit lens illumination and GPC/light scattering of lens homogenates; assay type: in vivo, mouse; conditions: 5 mM in saline-cyclodextrin, eye dropper three times a week for two weeks
α-crystallin = assay: Gel filtration (GPC) analysis of α-crystallin solubility, treated versus fellow untreated eye; assay type: in vivo, mice
Procedure: 5-cholesten-3b,25-diol formulated in a saline-cyclodextrin solution (5 mM cyclodextran; 5 mM 5-cholesten-3b,25-diol) was delivered by eye dropper three times a week for two weeks to live mice (n=15). Gel filtration analysis of α-crystallin solubility was conducted by processing samples as previously described by Andley et al. (PLoS ONE, 6:3, 1-13 (2011)). Briefly, degree of aggregation of α-crystallin was determined using gel permeation chromatography (GPC) with light scattering and refractive index (RI) measurements. All data were analyzed using SAS version 9.3 (SAS Institute; Cary, N.C.). To control for differences in assay sensitivity among animals, the area under the curve for α-crystallin in the drug treated eye was compared to the area under the curve generated from the fellow untreated eye and expressed as “percent” difference in area using the untreated eye as the denominator. The percent difference between treated and untreated eyes was compared using the Wilcoxon signed rank test for the null hypothesis of no difference. The association between age and percent difference was calculated using the Spearman rank correlation coefficient. Non-parametric statistical models were used to protect from departures from normality.

[6] = R120G cryAB 15 μM, compound 100 μM

`C[C@H](CCCC(C)(C)O)[C@H]1CC[C@H]2[C@@H]3CC=C4C[C@@H](O)CC[C@]4(C)[C@H]3CC[C@]12C` [5-cholesten-3b,25-diol] was tested, and the “ACTIVITY (shift in thermal stability at 100 μM)” value (R120G cryAB [1]) was −2.0 °C, the Kd (R120G cryAB [2]) was 10.1 ± 4.4 µM and the “amyloid formation (electron microscopy)” value (R120G cryAB [3]; [6]) was “dramatically suppressed amyloid formation”. The “opacity of the R120G cryAB mixture (visual inspection)” value (R120G cryAB [3]; [6]) was “reduced the opacity”, the “aggregation of pre-formed R120G cryAB amyloids” value (R120G cryAB [3]; pre-formed amyloids) was “reversed the aggregation” and the “binding site on R120G cryAB” value (R120G cryAB [4]) was “binds a groove across the cryAB dimer interface”. For the same molecule, the “aggregation of cryAB” value (cryAB) was “significantly reduced the aggregation of cryAB”, the cryAB solubility (cryAB) was “improved cryAB solubility” and the cryAB solubility [5] was “significantly improved cryAB solubility”. The lens transparency [5] was “improved lens transparency”, the “rescued cataract phenotypes (treated mice)” value [5] was 10/15 and the “Percent difference in area between untreated and treated eyes, Mean” value (“Percent difference … Mean” below) (α-crystallin; Age 66 days) was 177.2%. The “Percent difference in area between untreated and treated eyes, Median” value (“Percent difference … Median” for short) (α-crystallin; Age 66 days) was −20.2%, the “Percent difference … Mean” value (α-crystallin; Age 79 days) was 98.1% and the “Percent difference … Median” value (α-crystallin; Age 79 days) was 98.1%. The “Percent difference … Mean” value (α-crystallin; Age 184 days) was 61.4%, the “Percent difference … Median” value (α-crystallin; Age 184 days) was 61.4% and the “Percent difference … Mean” value (α-crystallin; Age 192 days) was 22.7%. The “Percent difference … Median” value (α-crystallin; Age 192 days) was 55.8%, the “Percent difference … Mean” value (α-crystallin; Age 200 days) was 38.7% and the “Percent difference … Median” value (α-crystallin; Age 200 days) was 31.8%. For the same molecule, the “Percent difference … Mean” value (α-crystallin; Age 266 days) was 1376.3%, the “Percent difference … Median” value (α-crystallin; Age 266 days) was 679.0% and the “Percent difference … Mean” value (α-crystallin; All ages) was 381.2±974.6% and 381.2%. The “Percent difference … Median” value (α-crystallin; All ages) was 63.3% and the “area under the curve of α-crystallin, drug treated eyes versus fellow untreated eyes” value (α-crystallin; eye drops 5 mM three times a week for two weeks, Wilcoxon signed rank) was “statistically significantly higher”.

For `CC(C)CCC[C@@H](C)[C@H]1CC[C@H]2[C@@H]3CC=C4C[C@@H](O)CC[C@]4(C)[C@H]3CC[C@]12C` [5-cholesten-3b-ol], the “ACTIVITY (shift in thermal stability at 100 μM)” value (R120G cryAB [1]) was −1.1 °C.

`CC(C)CCC[C@@H](C)[C@H]1CC[C@H]2[C@@H]3CC[C@H]4C[C@@H](O)CC[C@]4(C)[C@H]3CC[C@]12C` [5a-cholestan-3b-ol-6-one, (2R,5S,7S,15R)-5-hydroxy-2,15-dimethyl-14-(6-methylheptan-2-yl)tetracyclo [8.7.0.0^{2,7}.0^{11,15}] heptadecan-8-one] was tested, and the “ACTIVITY (shift in thermal stability at 100 μM)” value (R120G cryAB [1]) was −3.0 °C.

In the case of `CC(C)CCC[C@@H](C)[C@H]1CC[C@H]2[C@@H]3CC=C4C[C@@H](O)CC[C@]4(C)[C@H]3CC[C@]12C` [cholesterol, reference compound], the “activity in DSF” value (R120G cryAB [1]; focused sterol collection) is reported as “inactive” and the “amyloid formation (electron microscopy)” value (R120G cryAB [3]; [6]) is reported as “not”.

`C[C@]12CCC(=O)C[C@H]1CC[C@@H]1[C@@H]2CC[C@]2(C)[C@@H](O)CC[C@@H]12` [etiocholan-17b-ol-3-one] was tested, and the “ACTIVITY (shift in thermal stability at 100 μM)” value (R120G cryAB [1]) was “+1.7 °C”.
